Measured values reported in patent publication US12109245B2, “Extract of aerial parts of Maca rich in polyphenols and composition comprising same” (LABORATOIRES EXPANSCIENCE, priority 2010, dated 2024).

Legend:
Type in all cases: cell-based
Human neutrophils = assay: Release of elastase by neutrophils; conditions: 10 μg/ml Boswellic acid
Protocol: Human neutrophils were treated for 15 minutes with 0.005 and 0.01% (w/v of active substance) Maca leaf extract (MC) or with 10 μg/ml Boswellic acid (reference) and stimulated with 1 μM calcium ionophore A23187, for 10 minutes. The release of elastase was evaluated by measuring the elastase activity with a spectrophotometric method. The results were analysed statistically using a Student's t test.

[1] = system: Normal human dermal fibroblasts; assay: Gene expression of dermal matrix markers in fibroblasts (real-time RT-PCR); conditions: 5 ng/ml TGFβ1, 24 hours
Protocol: Normal human dermal fibroblasts were treated for 24 hours with 0.002% and 0.005% (w/v of active substance) Maca leaf extract (MC) or with 5 ng/ml TGFβ1 (reference).
At the end of incubation, the gene expression of various dermal matrix markers was analysed by means of real-time RT-PCR.
The results were analysed statistically by means of a one-factor ANOVA followed by a Dunnett test.

Normal human adipocytes = assay: Evaluation of lipogenesis in adipocytes ([14C]-acetate incorporation); conditions: 20 μM cerulenin
Protocol: Normal human adipocytes were incubated for 1 hour in the presence of 0.005% and 0.01% (w/v of active substance) Maca leaf extract or reference (20 μM cerulenin). After incubation, the radioactive marker [^14C]-acetate was added and the samples were incubated overnight.
At the end of incubation, the lipids were extracted and the incorporated radioactivity (corresponding to lipogenesis) was measured by means of liquid scintillation.
The results were analysed statistically using a Student's t test.

[2] = system: Human keratinocytes (NCTC-2544 line); assay: PMA-induced IL8 and PGE2 production by keratinocytes (ELISA)
Protocol: The cells were then treated with 0.1 μg/ml PMA (Phorbol Myristate Acetate) for 24 hours, also in the presence of MC or the references. Following the treatment, the quantities of IL8 (interleukin8) and PGE2 (prostaglandin E2) secreted were measured by means of ELISA in the culture supernatants. The results were analysed statistically using a Student's t test.

Jurkat cell lines = assay: UV-induced lipid peroxidation (C11-Fluor probe, flow cytometry); conditions: 100 μM BHT
Protocol: Jurkat cell lines were pre-incubated for 45 minutes in the presence of 0.005% and 0.01% (w/v of active substance) Maca leaf extract (MC) or 100 μM BHT (reference) and in the presence of the C11-Fluor fluorescent probe, specific for lipid peroxidation.
The cells were then irradiated with UVA+B and incubated for 30 minutes in the presence of MC or BHT.
At the end of incubation, the quantity of lipid peroxides was evaluated by means of a flow cytometry analysis of the fluorescence intensity (inversely proportional to oxidation).
The results were analysed were analysed statistically using a Student's t test.

For `C[C@H]1[C@H](C)CC[C@]2(C)CC[C@]3(C)C(=CC[C@@H]4[C@@]5(C)CC[C@@H](O)[C@](C)(C(=O)O)[C@@H]5CC[C@]43C)[C@H]12` [Boswellic acid], the “Elastase (net release; %)” value (Human neutrophils; 15 minutes, 1 μM calcium ionophore A23187 = 100) was 50.90 ± 7.49% and the inhibition at 10 µg/mL (Human neutrophils; Homo sapiens, Neutrophil) was 49%.

With “TGFβ1: 5 ng/ml TGFβ1 (reference) in the dermal fibroblast test” the “Collagen I gene expression, change vs control” value [1] was “+40%”, the “Dermatopontin gene expression, change vs control” value [1] was “+34%” and the “Elastin gene expression, change vs control” value [1] was “+57%”. The “Fibronectin gene expression, change vs control” value [1] was “+141%”, the “MMP1 gene expression, change vs control” value [1] was −78% and the “Collagen I gene expression (Relative Quantity)” value ([1]; control = 1.00) was 1.40. The “Dermatopontin gene expression (Relative Quantity)” value ([1]; control = 1.00) was 1.34, the “Elastin gene expression (Relative Quantity)” value ([1]; control = 1.00) was 1.57 and the “Fibronectin gene expression (Relative Quantity)” value ([1]; control = 1.00) was 2.41. For the same compound, the “MMP1 gene expression (Relative Quantity)” value ([1]; control = 1.00) was 0.22.

With `C/C=C/C/C=C/CCC(=O)[C@H]1O[C@H]1C(N)=O` [Cerulenin, cerulenin] the “Acetate incorporation (cpm)” value (Normal human adipocytes; control cells 32895 ± 1358) was 14934 ± 671 cpm and the inhibition at 20 µM (Normal human adipocytes; Homo sapiens, Adipocyte) was 55%.

In the case of `C[C@@H]1C[C@H]2[C@@H]3CCC4=CC(=O)C=C[C@]4(C)[C@@]3(F)[C@@H](O)C[C@]2(C)[C@@]1(O)C(=O)CO` [dexamethasone], the “IL8 Inhibition” value ([2]; 10−7M dexamethasone, 0.1 μg/ml PMA) is reported as 85% and the IL8 production ([2]; 10−7M dexamethasone, 0.1 μg/ml PMA 24 hours (PMA alone 50.1 ± 1.8)) is reported as 7.4 ± 0.08 ng/ml %.

`Cc1cc(C(C)(C)C)c(O)c(C(C)(C)C)c1` [BHT] was tested, and the “Protection (%) against UV-induced lipid peroxidation” value (Jurkat cell lines) was 49% and the “Lipid peroxidases (% irradiated reference)” value (Jurkat cell lines; UVA+B irradiated cells = 100) was 64%.

With `COc1ccc2c(c1)c(CC(=O)O)c(C)n2C(=O)c1ccc(Cl)cc1` [indometacin] the “PGE2 Inhibition” value ([2]; 10−6M indometacin, 0.1 μg/ml PMA) was 100% and the PGE2 production ([2]; 10−6M indometacin, 0.1 μg/ml PMA 24 hours (PMA alone 138.4 ± 10.6)) was 0.039 ± 0.0 ng/ml %.
